Experimental data: ChEMBL document CHEMBL4665624, “Synthesis of 5-(4-(1H-phenanthro[9,10-d]imidazol-2-yl)benzylidene)thiazolidine-2,4-dione as promising DNA and serum albumin-binding agents and evaluation of antitumor activity” (Eur J Med Chem, 2019)

Columns and labels:
[1] = tested on: NCI-H226; assay: Antitumor activity against human NCI-H226 assessed as cell growth inhibition at 10 uM incubated for 48 hrs by sulforhodamine B assay; type: functional; details: read-out: GI
[2] = tested on: RPMI-8226; assay: Antitumor activity against human RPMI8226 cells assessed as cell growth inhibition at 10 uM incubated for 48 hrs by sulforhodamine B assay; type: functional; details: read-out: GI
[3] = tested on: SN12C; assay: Antitumor activity against human SN12C cells assessed as cell growth inhibition at 10 uM incubated for 48 hrs by sulforhodamine B assay; type: functional; details: read-out: GI
[4] = tested on: SF-268; assay: Antitumor activity against human SF268 cells assessed as cell growth inhibition at 10 uM incubated for 48 hrs by sulforhodamine B assay; type: functional; details: read-out: GI
[5] = tested on: HCT-15; assay: Antitumor activity against human HCT15 cells assessed as cell growth inhibition at 10 uM incubated for 48 hrs by sulforhodamine B assay; type: functional; details: read-out: GI
[6] = tested on: EKVX; assay: Antitumor activity against human EKVX cells assessed as cell growth inhibition at 10 uM incubated for 48 hrs by sulforhodamine B assay; type: functional; details: read-out: GI
[7] = tested on: SK-OV-3; assay: Antitumor activity against human SK-OV-3 cells assessed as cell growth inhibition at 10 uM incubated for 48 hrs by sulforhodamine B assay; type: functional; details: read-out: GI
[8] = tested on: MDA-MB-435; assay: Antitumor activity against human MDA-MB-435 cells assessed as cell growth inhibition at 10 uM incubated for 48 hrs by sulforhodamine B assay; type: functional; details: read-out: GI
[9] = tested on: ACHN; assay: Antitumor activity against human ACHN cells assessed as cell growth inhibition at 10 uM incubated for 48 hrs by sulforhodamine B assay; type: functional; details: read-out: GI
[10] = tested on: K562; assay: Antitumor activity against human K562 cells assessed as cell growth inhibition at 10 uM incubated for 48 hrs by sulforhodamine B assay; type: functional; details: read-out: GI
[11] = tested on: MDA-MB-231; assay: Antitumor activity against human MDA-MB-231/ATCC cells assessed as cell growth inhibition at 10 uM incubated for 48 hrs by sulforhodamine B assay; type: functional; details: read-out: GI
[12] = tested on: OVCAR-4; assay: Antitumor activity against human OVCAR-4 cells assessed as cell growth inhibition at 10 uM incubated for 48 hrs by sulforhodamine B assay; type: functional; details: read-out: GI
[13] = tested on: SK-MEL-28; assay: Antitumor activity against human SK-MEL-28 cells assessed as cell growth inhibition at 10 uM incubated for 48 hrs by sulforhodamine B assay; type: functional; details: read-out: GI
[14] = tested on: UO-31; assay: Antitumor activity against human UO-31 cells assessed as cell growth inhibition at 10 uM incubated for 48 hrs by sulforhodamine B assay; type: functional; details: read-out: GI
[15] = tested on: UACC-62; assay: Antitumor activity against human UACC-62 cells assessed as cell growth inhibition at 10 uM incubated for 48 hrs by sulforhodamine B assay; type: functional; details: read-out: GI
[16] = tested on: LOX IMVI; assay: Antitumor activity against human LOX IMVI cells assessed as cell growth inhibition at 10 uM incubated for 48 hrs by sulforhodamine B assay; type: functional; details: read-out: GI
[17] = tested on: A498; assay: Antitumor activity against human A498 cells assessed as cell growth inhibition at 10 uM incubated for 48 hrs by sulforhodamine B assay; type: functional; details: read-out: GI
[18] = tested on: HOP-92; assay: Antitumor activity against human HOP92 cells assessed as cell growth inhibition at 10 uM incubated for 48 hrs by sulforhodamine B assay; type: functional; details: read-out: GI
[19] = tested on: NCI-H522; assay: Antitumor activity against human NCI-H522 cells assessed as cell growth inhibition at 10 uM incubated for 48 hrs by sulforhodamine B assay; type: functional; details: read-out: GI
[20] = tested on: BT-549; assay: Antitumor activity against human BT-549 cells assessed as cell growth inhibition at 10 uM incubated for 48 hrs by sulforhodamine B assay; type: functional; details: read-out: GI
[21] = tested on: SNB-75; assay: Antitumor activity against human SNB-75 cells assessed as cell growth inhibition at 10 uM incubated for 48 hrs by sulforhodamine B assay; type: functional; details: read-out: GI
[22] = tested on: CCRF-CEM; assay: Antitumor activity against human CCRF-CEM cells assessed as cell growth inhibition at 10 uM incubated for 48 hrs by sulforhodamine B assay; type: functional; details: read-out: GI
[23] = tested on: OVCAR-3; assay: Antitumor activity against human OVCAR-3 cells assessed as cell growth inhibition at 10 uM incubated for 48 hrs by sulforhodamine B assay; type: functional; details: read-out: GI
[24] = tested on: NCI-H23; assay: Antitumor activity against human NCI-H23 cells assessed as cell growth inhibition at 10 uM incubated for 48 hrs by sulforhodamine B assay; type: functional; details: read-out: GI
[25] = tested on: RXF 393; assay: Antitumor activity against human RXF 393 cells assessed as cell growth inhibition at 10 uM incubated for 48 hrs by sulforhodamine B assay; type: functional; details: read-out: GI
[26] = tested on: PC-3; assay: Antitumor activity against human PC-3 cells assessed as cell growth inhibition at 10 uM incubated for 48 hrs by sulforhodamine B assay; type: functional; details: read-out: GI
[27] = tested on: SF-295; assay: Antitumor activity against human SF295 cells assessed as cell growth inhibition at 10 uM incubated for 48 hrs by sulforhodamine B assay; type: functional; details: read-out: GI
[28] = tested on: SW-620; assay: Antitumor activity against human SW620 cells assessed as cell growth inhibition at 10 uM incubated for 48 hrs by sulforhodamine B assay; details: SW-620, 48 h, read-out: GI
[29] = tested on: Hs-578T; assay: Antitumor activity against human HS 578T cells assessed as cell growth inhibition at 10 uM incubated for 48 hrs by sulforhodamine B assay; type: functional; details: read-out: GI
[30] = tested on: COLO 205; assay: Antitumor activity against human COLO205 cells assessed as cell growth inhibition at 10 uM incubated for 48 hrs by sulforhodamine B assay; type: functional; details: read-out: GI
[31] = tested on: HCT-116; assay: Antitumor activity against human HCT116 cells assessed as cell growth inhibition at 10 uM incubated for 48 hrs by sulforhodamine B assay; type: functional; details: read-out: GI
[32] = tested on: IGROV-1; assay: Antitumor activity against human IGROV1 cells assessed as cell growth inhibition at 10 uM incubated for 48 hrs by sulforhodamine B assay; type: functional; details: read-out: GI
[33] = tested on: MCF7; assay: Antitumor activity against human MCF7 cells assessed as cell growth inhibition at 10 uM incubated for 48 hrs by sulforhodamine B assay; type: functional; details: read-out: GI
[34] = tested on: KM12; assay: Antitumor activity against human KM12 cells assessed as cell growth inhibition at 10 uM incubated for 48 hrs by sulforhodamine B assay; type: functional; details: read-out: GI
[35] = tested on: Malme-3M; assay: Antitumor activity against human MALME-3M cells assessed as cell growth inhibition at 10 uM incubated for 48 hrs by sulforhodamine B assay; type: functional; details: read-out: GI
[36] = tested on: M14; assay: Antitumor activity against human M14 cells assessed as cell growth inhibition at 10 uM incubated for 48 hrs by sulforhodamine B assay; type: functional; details: read-out: GI
[37] = tested on: HCC 2998; assay: Antitumor activity against human HCC2998 cells assessed as cell growth inhibition at 10 uM incubated for 48 hrs by sulforhodamine B assay; type: functional; details: read-out: GI
[38] = tested on: OVCAR-8; assay: Antitumor activity against human OVCAR-8 cells assessed as cell growth inhibition at 10 uM incubated for 48 hrs by sulforhodamine B assay; type: functional; details: read-out: GI
[39] = tested on: SR; assay: Antitumor activity against human SR cells assessed as cell growth inhibition at 10 uM incubated for 48 hrs by sulforhodamine B assay; type: functional; details: read-out: GI
[40] = tested on: NCI-H460; assay: Antitumor activity against human NCI-H460 assessed as cell growth inhibition at 10 uM incubated for 48 hrs by sulforhodamine B assay; type: functional; details: read-out: GI
[41] = tested on: HT-29; assay: Antitumor activity against human HT-29 cells assessed as cell growth inhibition at 10 uM incubated for 48 hrs by sulforhodamine B assay; type: functional; details: read-out: GI
[42] = tested on: SNB-19; assay: Antitumor activity against human SNB-19 cells assessed as cell growth inhibition at 10 uM incubated for 48 hrs by sulforhodamine B assay; type: functional; details: read-out: GI
[43] = tested on: 786-0; assay: Antitumor activity against human 786-0 cells assessed as cell growth inhibition at 10 uM incubated for 48 hrs by sulforhodamine B assay; type: functional; details: read-out: GI
[44] = tested on: U-251; assay: Antitumor activity against human U251 cells assessed as cell growth inhibition at 10 uM incubated for 48 hrs by sulforhodamine B assay; type: functional; details: read-out: GI
[45] = tested on: MDA-MB-468; assay: Antitumor activity against human MDA-MB-468 cells assessed as cell growth inhibition at 10 uM incubated for 48 hrs by sulforhodamine B assay; type: functional; details: read-out: GI
[46] = tested on: HL-60(TB); assay: Antitumor activity against human HL-60(TB) cells assessed as cell growth inhibition at 10 uM incubated for 48 hrs by sulforhodamine B assay; type: functional; details: read-out: GI
[47] = tested on: MOLT-4; assay: Antitumor activity against human MOLT4 cells assessed as cell growth inhibition at 10 uM incubated for 48 hrs by sulforhodamine B assay; type: functional; details: read-out: GI
[48] = tested on: NCI/ADR-RES; assay: Antitumor activity against human NCI/ADR-RES cells assessed as cell growth inhibition at 10 uM incubated for 48 hrs by sulforhodamine B assay; type: functional; details: read-out: GI

## O=Cc1ccc(-c2nc3c([nH]2)-c2cccc4cccc-3c24)cc1
[1]
  inhibition of growth at 10 µM: 12.4%
[2]
  inhibition of growth at 10 µM: 22.8%
[3]
  inhibition of growth at 10 µM: < 10%
[4]
  inhibition of growth at 10 µM: 13.3%
[5]
  inhibition of growth at 10 µM: 23.7%
[6]
  inhibition of growth at 10 µM: 23%
[7]
  inhibition of growth at 10 µM: < 10%
[8]
  inhibition of growth at 10 µM: < 10%
[9]
  inhibition of growth at 10 µM: < 10%
[10]
  inhibition of growth at 10 µM: 16.5%
[11]
  inhibition of growth at 10 µM: 25.6%
[12]
  inhibition of growth at 10 µM: 27.4%
[13]
  inhibition of growth at 10 µM: < 10%
[14]
  inhibition of growth at 10 µM: 33.4%
[15]
  inhibition of growth at 10 µM: 19.8%
[16]
  inhibition of growth at 10 µM: 25.8%
[17]
  inhibition of growth at 10 µM: < 10%
[18]
  inhibition of growth at 10 µM: 14%
[19]
  inhibition of growth at 10 µM: < 10%
[20]
  inhibition of growth at 10 µM: < 10%
[21]
  inhibition of growth at 10 µM: < 10%
[22]
  inhibition of growth at 10 µM: 11.1%
[23]
  inhibition of growth at 10 µM: 12.3%
[24]
  inhibition of growth at 10 µM: 14.9%
[25]
  inhibition of growth at 10 µM: < 10%
[26]
  inhibition of growth at 10 µM: 21.1%
[27]
  inhibition of growth at 10 µM: < 10%
[28]
  inhibition of growth at 10 µM: < 10%
[29]
  inhibition of growth at 10 µM: < 10%
[30]
  inhibition of growth at 10 µM: < 10%
[31]
  inhibition of growth at 10 µM: 19.2%
[32]
  inhibition of growth at 10 µM: 28.9%
[33]
  inhibition of growth at 10 µM: 51.6%
[34]
  inhibition of growth at 10 µM: 13%
[35]
  inhibition of growth at 10 µM: < 10%
[36]
  inhibition of growth at 10 µM: < 10%
[37]
  inhibition of growth at 10 µM: 12.8%
[38]
  inhibition of growth at 10 µM: < 10%
[39]
  inhibition of growth at 10 µM: 16%
[40]
  inhibition of growth at 10 µM: 23.6%
[41]
  inhibition of growth at 10 µM: < 10%
[42]
  inhibition of growth at 10 µM: < 10%
[43]
  inhibition of growth at 10 µM: < 10%
[44]
  inhibition of growth at 10 µM: < 10%
[45]
  inhibition of growth at 10 µM: 30.9%
[46]
  inhibition of growth at 10 µM: < 10%
[47]
  inhibition of growth at 10 µM: 20.5%
[48]
  inhibition of growth at 10 µM: < 10%
